From patent publication US9034859B2, “Sulfated oxysterol and oxysterol sulfation by hydroxysterol sulfotransferase promote lipid homeostasis and liver proliferation” (Virginia Commonwealth University, priority 2011, dated 2015) come the findings set out here.

For series [1], the system named is LXR signaling pathway. The series can be described thus: Western blot of LXR and its target genes and PCNA in mouse liver (Example 3). It is filed as in vivo, C57BL/6 mice. On the procedure:
Cayman Chemical, Ann Arbor, Mich.); […] […] Metabolism. (Accepted)]. […] Cell lysates were prepared from frozen mouse liver tissues. Total proteins, 100 μg, were separated by 10% SDS-PAGE, and transferred to PVDF membrane (Millipore, Eschbom, Germany). […] Louis, Mo.) was used as a loading control. The immunoreactive bands were detected by Fujifilm Medical System (Fujifilm, Stamford, Conn.) and quantified by Advanced Image Data Analyzer (Aida Inc., Straubenhardt, Germany).
In general terms: In western blotting, separated proteins are transferred to a membrane and probed.

Series [2] can be described thus: Long-term treatment of HFD-fed mice: body mass, liver weight, plasma lipids, liver function. It is filed as in vivo, C57BL/6J female mice. The protocol: Animal studies were approved by Institutional Animal Care and Use Committee of McGuire Veterans Affairs Medical Center and were conducted in accordance with the Declaration of Helsinki, the Guide for the Care and Use of Laboratory Animals, and all applicable regulations. To examine the effect of 25HC3S on diet-induced lipid accumulation in sera and liver, 8-week-old female C57BL/6J mice (Charles River, Wilmington, Mass.) were randomly assigned to three groups: the first control group was fed a chow diet; the high fat diet (HFD) group was fed a HFD (Harlan Teklad, Madison, Wis.) containing 42% kcal from fat, 43% kcal from carbohydrate, 15% kcal from protein and 0.2% cholesterol; and the high cholesterol diet (HCD) group was fed a 2% cholesterol diet with 18% kcal from fat, 58% kcal from carbohydrate and 24% kcal from protein for 10 weeks, respectively. All mice were housed under identical conditions in an aseptic facility and given free access to water and food. At the end of each period, the mice were intraperitoneally injected with vehicle solution (ethanol/PBS; Vehicle), 25HC (25 mg/kg), or 25HC3S (25 mg/kg) for 2 times and fasted over night for acute treatment (n=15-17 for each group) or once every three days for 6 weeks (n=16 for each group) and fasted 5 hrs for long-term treatment; and blood samples were collected. Serum triglyceride, total cholesterol, high density lipoprotein-cholesterol, glucose, alkaline phosphatase (ALK), alanine aminotransferase (ALT), and aspartate aminotransferase (AST) were measured using standard enzymatic techniques in the clinical laboratory at McGuire Veterans Affairs Medical Center. Lipoprotein profiles in sera were analyzed by HPLC as following described.

The subject of series [3] is PCNA. Put plainly: PCNA labeling index in liver histology. It is filed as in vivo, C57BL/6 mice. The following applies: liver specimen of 25HC3S treated mice (5 mg/kg, 48 h). On the procedure: Metabolism. (Accepted)]. […] Antigen retrieval was performed by microwaving of the sections in citrate buffer (PH 6.0) for 10 min. Sections were incubated overnight at […] with the primary monoclonal antibody against proliferating cell nuclear antigen (PCNA) (ab29, Abcam, Cambridge, Mass.). After washing with PBS, immobilized antibodies were detected by the avidin-biotin-peroxidase complex technique (Vectastain@ ABC Kit, Vector Laboratories, Burlingame, Calif.). DAB (Vector Laboratories, Burlingame, Calif.) and haematoxylin (Sigma-Aldrich, St. Louis, Mo.) was used as the chromogen and nuclear counterstain, respectively. […] The quantitation of PCNA expression was expressed as the PCNA labeling index.

Series [4] has as its system genes related to cell cycle progression. The series can be described thus: RTqPCR of cell cycle-related genes in mouse liver after 25HC3S (Example 3). It is filed as in vivo, C57BL/6 mice. The following applies: doses lower than 5 mg/kg, 48 h, dose-dependent. The protocol:
PCR assays were performed in 96-well optical reaction plates using the ABI 7500 Fast Real-Time PCR System (Applied Biosystems, Foster City, Calif.). PCR assays were conducted in triplicate wells for each sample. Baseline values of amplification plots were set automatically and threshold values were kept constant to obtain normalized cycle times and linear regression data. The following reaction mixture per well was used: 2×SYBR Green PCR Master Mix (10 ul), primer at the final concentration of 10 uM (1 ul), RNAse-free water (4 ul), cDNA (5 ul, 10 ng). For all experiments the following PCR conditions were used: denaturation at 95° C. for 10 minutes, followed by 40 cycles at 95° C. for 15 seconds, then at 60° C. for 60 seconds. Quantitative normalization of cDNA in each sample was performed using 18S gene as an internal control. Relative quantification was performed using the ΔΔCT method. Suitable primers were used for RtqPCR.

Series [5] deals with primary rat hepatocytes (PRH). The series can be described thus: Western blot in primary rat hepatocytes (Example 4). It is filed as cell-based. Particulars: Ad-Control-infected group, T0901317 1.5 μM or 25HC 3 μM. On the procedure:
PRH were prepared as previously described (24). Briefly, parenchymal cells (3.5×10^6) were inoculated in 60-mm plastic Petri dishes coated with rat tail collagen. The plates contained 3 ml of Williams E culture media supplemented with thyroxine (1 μM), dexamethasone (0.1 μM), and penicillin (100 units/ml). Three hours after plating, culture medium was removed and fresh medium was added. Cells were then infected with Ad-SULT2B1b at a multiplicity (MOI) of 10 plaque forming units/cell (pfu/cell) or 100 nM of siRNA-SULT2B1b (ON-TARGET plus siRNA of rat SULT2B1b, Thermo Scientific Dharmacon, Lafayette, Colo.) as previously described (31). The Ad-Control and siRNA-Control (ON-TARGET plus negative control siRNA) were used as controls, respectively. Twenty four hours after infection, cells were treated with T0901317 (1.5 μM) or 25HC (3 μM) for another 24 hours. The cells were harvested at the timepoints as indicated in the text.
Cell lysates were prepared from frozen mouse liver tissues or PRH, and 50 μg of the total proteins were separated by 10% SDS-PAGE, transferred to polyvinylidene difluoride membrane (Millipore, Eschbom, Germany). Specific protein was probed with specific antibodies against PCNA, human SULT2B1b (Santa Cruz Biotechnology, Santa Cruz, Calif.), LXRα (Abcam, Cambridge, Mass.), ATP-binding cassette transporters 1 (ABCA1) (Abcam, Cambridge, Mass.), and SREBP1 (Santa Cruz Biotechnology, Santa Cruz, Calif.). β-Actin (Sigma-Aldrich, St. Louis, Mo.) was used as a loading control. Western analysis was performed by methods known in the art.

With `CC(CCCC(C)(C)O)C1CCC2C3CC=C4CC(OS(=O)(=O)O)CCC4(C)C3CCC12C` (centres unmarked) [25HC3S, 25-hydroxycholesterol-3-sulfate], in series [1] (5 mg/kg, 48 h), the “decrease of ABCA1 protein level” value is 50%, the “decrease of LXRα protein level” value turned out to be 40%, the “decrease of SREBP-1c protein level” value is 30% and the “increase of PCNA protein level” value is reported as 2 fold. Also, the liver weight entry in series [2] (6 weeks injection, fasted 5 hrs) is on record as “significantly decreased”. Also, the body mass entry in series [2] (i.p. once every three days, 6 weeks, control kept increasing) is recorded as “stopped increasing body mass”. Moreover, in series [2] (long-term treatment), the “serum ALK, ALT and AST levels” value is reported as “significantly reduced”. The plasma triglyceride level entry in series [2] (long-term treatment (data not shown)) was “did not significantly decrease”. Moreover, the plasma cholesterol level result in series [2] (long-term treatment, compared to vehicle (data not shown)) is given as “significantly decreased”. The compound further came in with a PCNA labeling index in series [3] of 12%. Further, the “hepatic mRNA of cMyc, cyclin A, FoxM1b, CDC25b” value in series [4] is reported as “significant up-regulation”.

In the case of `C[C@H](CCCC(C)(C)O)[C@H]1CC[C@H]2[C@@H]3CC=C4C[C@@H](O)CC[C@]4(C)[C@H]3CC[C@]12C` [25HC, 25-hydroxycholesterol], the “expression of ABCA1 and SREBP-1c” value in series [1] (Ad-Control and 25HC co-treatment group) is listed as “effectively up-regualted”. In series [5], the “LXR response gene expressions” value was “significantly increased” and the PCNA expression result is on record as “decreased”.
